Source: patent US20030134859A1 (SANKYO COMPANY, LIMITED, priority 2000, published 2003)
Counter-ions that a name gives are not always drawn. Like-named read-outs stand apart in the source and are kept apart here.

What was measured:
[1] = system: Mouse preadipocyte strain 3T3-L1; assay: Inhibition of differentiation as an indication of acetic acid uptake; assay type: cell-based; conditions: control (0.01% dimethylsulfoxide) = 100%; for activity at 0.1 µM: Mus musculus, read-out: Rate of Uptake (%) of [2-14C] acetic acid
Summary of the method: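 Differentiation is indexed by 1 hr [2-14C]acetic acid incorporation, measured by scintillation counting and given as uptake relative to 0.01% DMSO control (100%). Mouse 3T3-L1 preadipocytes, pre-grown 10 days, received 0.1 μM test substance throughout a 4-day insulin/IBMX/dexamethasone induction, followed by 2 days' maintenance culture.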

Rat white adipocytes = assay: Stimulation of differentiation of the adipocytes (Oil Red O); assay type: cell-based; conditions: 100 nM test compound, 5 days, Oil Red O ABS550, control = 100%, blank = 0%, Table 7; for activity at 0.1 µM: Rattus norvegicus, Adipocyte, 120 h, read-out: Rate of Differentiation (%)
Summary of the method: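 Oil Red O lipid staining, absorbance 550 nm after DMSO extraction, quantified differentiation of rat white adipocytes exposed 5 days to compound (final 100 nM, 0.1% DMSO) in differentiation medium. Percent differentiation normalised between cell-free blank (0%) and DMSO control (100%).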

Compound | activity at 0.1 µM (Rat white adipocytes) | activity at 0.1 µM ([1]; 3T3-L1, 0.1 μM test substance) | other results
O=C(Nc1ccc(-c2ccc([N+](=O)[O-])cc2)cc1)c1cc([N+](=O)[O-])ccc1Cl [Example 9, N-[4-(4-Nitrophenyl)phenyl)-(2-chloro-5-nitrophenyl)carboxamide] | 116% |  | activity at 0.1 µM ([1]; 0.1 μM test substance): 59.9%
CCCc1ccc(NC(=O)c2cc([N+](=O)[O-])ccc2Cl)cc1 [Example 15, N-(4-Propylphenyl)-(2-chloro-5-nitrophenyl)carboxamide] | 124% | 78.4% | 
O=C(Nc1ccc(OC(F)(F)F)cc1)c1cc([N+](=O)[O-])ccc1Cl [Example 18, N-(4-Trifluoromethyloxyphenyl)-(2-chloro-5-nitrophenyl)carboxamide] | 115% | 53.8% | 
N#Cc1cccc(NC(=O)c2cc([N+](=O)[O-])ccc2Cl)c1 [Example 21, N-(3-Cyanophenyl)-(2-chloro-5-nitrophenyl)carboxamide] |  | 70.3% | 
O=C(Nc1ccc([N+](=O)[O-])cc1)c1cc([N+](=O)[O-])ccc1Cl [Example 23, N-(4-Nitrophenyl)-(2-chloro-5-nitrophenyl)carboxamide] |  |  | activity at 0.1 µM ([1]; 0.1 μM test substance): 59.5%
O=C(Nc1ccc([N+](=O)[O-])cn1)c1cc([N+](=O)[O-])ccc1Cl [Example 24, N-(5-Nitropyridin-2-yl)-(2-chloro-5-nitrophenyl)carboxamide] |  |  | activity at 0.1 µM ([1]; 0.1 μM test substance): 66.1%
O=C(Nc1cccc([N+](=O)[O-])c1)c1cc([N+](=O)[O-])ccc1Cl [Example 25, N-(3-Nitrophenyl)-(2-chloro-5-nitrophenyl)carboxamide] |  |  | activity at 0.1 µM ([1]; 0.1 μM test substance): 66.3%
O=C(Nc1cc([N+](=O)[O-])ccc1Cl)c1cc([N+](=O)[O-])ccc1Cl [Example 28, N-(2-Chloro-5-nitrophenyl)-(2-chloro-5-nitrophenyl)carboxamide] | 111% |  | activity at 0.1 µM ([1]; 0.1 μM test substance): 87.8%
O=C(Nc1cccc(C(=O)N2CCCC2)c1)c1cc([N+](=O)[O-])ccc1Cl [Example 31] |  |  | Rate of Uptake (%) of [2-14C] acetic acid ([1]; 0.1 μM test substance): 85.9%
Cc1ccc(S(=O)(=O)Nc2ccc(NC(=O)c3cc([N+](=O)[O-])ccc3Cl)cc2)cc1 [Example 32, N-[4-(4-Methylbenzene)sulfonylaminophenyl]-(2-chloro-5-nitrophenyl)carboxamide] |  |  | Rate of Uptake (%) of [2-14C] acetic acid ([1]; 0.1 μM test substance): 60.5%; Rate of Differentiation (%) (Rat white adipocytes): 114.6%
O=C(Nc1nc2ccc([N+](=O)[O-])cc2s1)c1cc([N+](=O)[O-])ccc1Cl [Example 34, N-(6-Nitrobenzothiazol-2-yl)-(2-chloro-5-nitrophenyl)carboxamide] | 140% |  | activity at 0.1 µM ([1]; 0.1 μM test substance): 60.8%
O=C(Nc1nc(-c2cccs2)cs1)c1cc([N+](=O)[O-])ccc1Cl [Example 36, N-[4-(2-Thienyl)thiazol-2-yl)-(2-chloro-5-nitrophenyl)carboxamide] | 111% | 29.2% | 
O=C(Nc1nc(-c2ccc3ccccc3c2)cs1)c1cc([N+](=O)[O-])ccc1Cl [Example 42, N-[4-(2-Naphthyl)thiazol-2-yl)-(2-chloro-5-nitrophenyl)carboxamide] |  | 60% | 
O=C(Nc1ccncc1)c1cc([N+](=O)[O-])ccc1Cl [Example 49, N-(4-Pyridyl)-(2-chloro-5-nitrophenyl)carboxamide] |  |  | Rate of Uptake (%) of [2-14C] acetic acid ([1]; 0.1 μM test substance): 69.6%
O=C(Nc1cnc2ccccc2c1)c1cc([N+](=O)[O-])ccc1Cl [Example 55, N-(3-Quinolinyl)-(2-chloro-5-nitrophenyl)carboxamide] |  | 55.4% | 
O=C(Nc1ccc(Cl)nc1)c1cc([N+](=O)[O-])ccc1Cl [Example 62, N-(6-Chloropyridin-3-yl)-(2-chloro-5-nitrophenyl)carboxamide] |  | 82.9% | 
O=C(Nc1ccc(NC(=O)c2cc([N+](=O)[O-])ccc2Cl)nc1)c1cc([N+](=O)[O-])ccc1Cl [Example 64, 2,5-bis(2-Chloro-5-nitrobenzoylamino)pyridine] |  |  | activity at 0.1 µM ([1]; 0.1 μM test substance): 96.2%
O=C(Nc1nc2cc(Cl)ccc2o1)c1cc([N+](=O)[O-])ccc1Cl [Example 75, N-(5-Chlorobenzoxazol-2-yl)-(2-chloro-5-nitrophenyl)carboxamide] |  | 80.1% | 
O=C(Nc1ncc(Br)cn1)c1cc([N+](=O)[O-])ccc1Cl [Example 77, N-(5-Bromopyrimidin-2-yl)-(2-chloro-5-nitrophenyl)carboxamide] |  | 62.7% | 

Compound | activity at 0.1 µM (Rat white adipocytes) | activity at 0.1 µM ([1]; 3T3-L1, 0.1 μM test substance) | other results
Nc1ccc(-c2ccc(NC(=O)c3cc([N+](=O)[O-])ccc3Cl)cc2)cc1 [Example 88, N-[4-(4-Aminophenyl)phenyl]-(2-chloro-5-nitrophenyl)carboxamide mono-hydrochloride] |  | 56.4% | 
O=C(Nc1ccc(Cl)nn1)c1cc([N+](=O)[O-])ccc1Cl [Example 89] |  |  | Rate of Uptake (%) of [2-14C] acetic acid ([1]; 0.1 μM test substance): 58.1%
Cc1c(C)c2c(c(C)c1O)C(=O)CC(C)(COc1ccc(NC(=O)c3cc([N+](=O)[O-])ccc3Cl)cc1)O2 (stereo not drawn) [Example 92, N-[4-(6-Hydroxy-2,5,7,8-tetramethyl-4-oxochroman-2-ylmethoxy)phenyl]-(2-chloro-5-nitrophenyl)carboxamide] |  | 63% | 
CS(=O)(=O)Nc1ccc(-c2ccc(NC(=O)c3cc([N+](=O)[O-])ccc3Cl)cc2)cc1 [Example 93, N-[4-[4-(Methanesulfonylamino)phenyl]phenyl]-(2-chloro-5-nitrophenyl)carboxamide] |  | 90.3% | 
Cc1ccc(S(=O)(=O)Nc2ccc(-c3ccc(NC(=O)c4cc([N+](=O)[O-])ccc4Cl)cc3)cc2)cc1 [Example 94, N-[4-[4-(4-Toluenesulfonylamino)phenyl]phenyl]-(2-chloro-5-nitrophenyl)carboxamide] |  | 80.4% | 
Cc1nnc(NS(=O)(=O)c2ccc(NC(=O)c3cc([N+](=O)[O-])ccc3Cl)cc2)s1 [Example 101, N-[4-[(5-Methyl-[1,3,4]thiadiazol-2-yl)aminosulfonyl]phenyl]-(2-chloro-5-nitrophenyl)carboxamide] |  | 78.3% | 
CC(=O)Nc1ccc(-c2ccc(NC(=O)c3cc([N+](=O)[O-])ccc3Cl)cc2)cc1 [Example 118, N-[4-(4-Acetylaminophenyl)phenyl]-(2-chloro-5-nitrophenyl)carboxamide] |  | 79.6% | 
O=C(Nc1ccc(-c2ccc(NC(=O)c3cc([N+](=O)[O-])ccc3Cl)cc2)cc1)c1ccccc1 [Example 120, N-[4-(4-Benzoylaminophenyl)phenyl]-(2-chloro-5-nitrophenyl)carboxamide] |  | 64.6% | 
O=C(Nc1ccc(-c2ccc(NC(=O)c3cc([N+](=O)[O-])ccc3Cl)cc2)cc1)c1cccnc1 [Example 124, N-[4-[4-(Pyridin-3-ylcarbonylamino)phenyl]phenyl]-(2-chloro-5-nitrophenyl)carboxamide] |  | 60% | 
O=C(Nc1ccc(NS(=O)(=O)c2ccccc2)cc1)c1cc([N+](=O)[O-])ccc1Cl [Example 127, N-(4-Benzenesulfonylaminophenyl)-(2-chloro-5-nitrophenyl)carboxamide] | 112% |  | 
O=C(Nc1cnccn1)c1cc([N+](=O)[O-])ccc1Cl [Example 140, N-(Pyrazin-2-yl)-(2-chloro-5-nitrophenyl)carboxamide] |  | 72.4% | 
Cl.O=C(Nc1ccncc1)c1cc([N+](=O)[O-])ccc1Cl [Example 146, N-(Pyridin-4-yl)-(2-chloro-5-nitrophenyl)carboxamide Hydrochloride] |  | 60% | 
Cc1ccc(C(=O)Nc2nc3ccc(NC(=O)c4cc([N+](=O)[O-])ccc4Cl)cc3s2)cc1 [Example 149, N-[2-(4-Methylbenzoylamino)benzothiazol-6-yl]-(2-chloro-5-nitrophenyl)carboxamide] |  | 76.5% | 
O=C(Nc1ccc(C(=O)N2CCCCC2)cc1)c1cc([N+](=O)[O-])ccc1Cl [Example 159, N-[4-(Piperidylcarbonyl)phenyl]-(2-chloro-5-nitrophenyl)carboxamide] | 123% |  | 
CC(C)(C)c1cc(NS(=O)(=O)c2cccc(NC(=O)c3cc([N+](=O)[O-])ccc3Cl)c2)cc(C(C)(C)C)c1O [Example 161, N-[3-[(3,5-di-tert-Butyl-4-hydroxyphenyl)aminosulfonyl]phenyl]-(2-chloro-5-nitrophenyl)carboxamide] | 113% |  | 
CC(C)(C)c1cc(NS(=O)(=O)c2ccc(NC(=O)c3cc([N+](=O)[O-])ccc3Cl)cc2)cc(C(C)(C)C)c1O [Example 175, N-[4-[(3,5-di-tert-Butyl-4-hydroxyphenyl)aminosulfonyl]phenyl]-(2-chloro-5-nitrophenyl)carboxamide] | 114% |  | 
CCCN(CCC)c1ccc(NC(=O)c2cc([N+](=O)[O-])ccc2Cl)cc1 [Example 182, N-[4-(N,N-Dipropylamino)phenyl]-(2-chloro-5-nitrophenyl)carboxamide] | 122% |  | 
O=C(Nc1nc(-c2ccc([N+](=O)[O-])cc2)cs1)c1cc([N+](=O)[O-])ccc1Cl [Example 246, N-[4-(4-Nitrophenyl)thiazol-2-yl]-(2-chloro-5-nitrophenyl)carboxamide] | 120% |  | 
N-[4-(4-Methylbenzoylamino)phenyl]phenyl]-(2-chloro-5-nitrophenyl)carboxamide [Example 122] |  |  | Rate of Uptake (%) of [2-14C] acetic acid ([1]; 0.1 μM test substance): 75.4%
